Read-outs that look alike come from different tables or passages of the source.
Experiments:
INS-1 cells [1] = assay type: cell-based, rat; conditions: for cell viability values: 24 hours, INS-1 cells, control 100±3.3%
Experimental: (§1) INS-1 cell strain from rat origin used in the studies was proliferated by performing routine passages once per week. The cells were grown under 1 atm pressure, in the incubator containing 5% CO2 and 95% air, in powder RPMI 1640 medium containing heat inactivated 10% fetal bovine serum (FBS) and antibiotics (100 unit/ml penicillin G100, 100 µg/ml streptomycin), 1% sodium pyruvate, hepes, sodium bicarbonate and beta-mercaptoethanol at 37 °C. The cells produced in 75 cm^2 sterile culture plate were used for the experiment when they covered 60-80% of the culture plate.
(§2) The cells to be used in the experiments were removed from the surface of culture plate where they stuck, when they cover 60-80% of the culture plate, by using trypsin. In order to prevent the effect of trypsin to cells whose removal was monitored under microscope, the medium with the equal amount as trypsin was added and the cell suspension was collected in the centrifuge tube and centrifuged in 1500 rpm for 5 minutes. The supernatant was removed after centrifuge, the medium was added to the cells remained in the bottom part of the tube and pipetted in order to form single cell suspension. The total amount of cells was calculated by using hemocytometer. 50 000 INS-1 beta cells taken from 100% viable single cell suspension, whose cell amount was calculated, were cultured to each of the culture plates with 96 wells. The cultured cells were incubated at 37 °C for 24 hours in order to provide the sticking to the surface of culture plate and growing. After 24 of incubation, the cells were treated with 0.25 mM, 0.5 mM, 0.75 mM, 1 mM, 1.25 mM, 1.5 mM, 1.75 mM, 2 mM, 2.5 mM, 2.75 mM, 3 mM, 3.25 mM, 3.5 mM, 3.75 mM,4 mM, 4.25 mM, 4.5 mM, 4.75 mM, 5 mM palmitic acid which were the chosen doses for palmitic acid. 10 wells including the control group were used in the experiments and 24-hour experiment groups were formed for each of the concentrations.
(§3) After the removal of the grown cells by trypsin, culturing was performed to 96 wells in a way such that there would be 50 000 cells in 200 µl. The cultured cells were incubated at 37 °C for 24 hours in order to provide growing. After 24 h of incubation, the cells were treated with 1nM, 10nM, 100nM curaglutide which were the chosen doses. 10 wells including the control group were used in the experiments and 24-hour experiment groups have been formed for each of the concentrations.
(§4) MTT ([3-(4, 5-dimethyl tiazol-2-il)-2, 5 diphenyl tetrazolium bromide]) test is a drug sensitivity test based on cell culture principal, it aims to assess the cell growth and/or cell death in an indirect way. This frequently used test differs from the other testing methods, with the advantages that it is fast, sensitive, reproducible and easy to apply. The cracking of the tetrazolium ring of MTT paint by mitochondria in living cells underlies the basis of this method. This reaction is catalyzed by succinate dehydrogenase which is a mitochondrial enzyme. MTT is absorbed to cells actively and it is reduced to formazan which is non-soluble in water and has blue-purple color, by the reaction taking place in mitochondria. The MTT reducing properties of the cells are accepted as the cell viability criteria and they are directly proportionate to the paint density and living cell amount obtained by MTT analyze. While living cells with non-damaged mitochondria function are painted with purple color, cells that are dead or with damaged mitochondria function are not painted. Following bringing the formazan crystals formed by incubated living cells into soluble form, reaction product is read […].
(§5) 50 mg MTT (AppliChem A2231 0001) was weighed, it was dissolved by completing 10 ml with RPMI 1640 medium via vortex, with paying attention that there are no not-dissolved paint particles left, and they were obtained by filtering through 0.22 µm filter. It was used by preparing a fresh one each time. […]

[2] = target: dipeptidyl peptidase IV (DPP-IV) (Homo sapiens, UniProt P27487); conditions: proteolytic enzyme DPP-IV; cited from earlier work
dipeptidyl peptidase IV (DPP-IV), sequence (P27487 whole entry, species assumed): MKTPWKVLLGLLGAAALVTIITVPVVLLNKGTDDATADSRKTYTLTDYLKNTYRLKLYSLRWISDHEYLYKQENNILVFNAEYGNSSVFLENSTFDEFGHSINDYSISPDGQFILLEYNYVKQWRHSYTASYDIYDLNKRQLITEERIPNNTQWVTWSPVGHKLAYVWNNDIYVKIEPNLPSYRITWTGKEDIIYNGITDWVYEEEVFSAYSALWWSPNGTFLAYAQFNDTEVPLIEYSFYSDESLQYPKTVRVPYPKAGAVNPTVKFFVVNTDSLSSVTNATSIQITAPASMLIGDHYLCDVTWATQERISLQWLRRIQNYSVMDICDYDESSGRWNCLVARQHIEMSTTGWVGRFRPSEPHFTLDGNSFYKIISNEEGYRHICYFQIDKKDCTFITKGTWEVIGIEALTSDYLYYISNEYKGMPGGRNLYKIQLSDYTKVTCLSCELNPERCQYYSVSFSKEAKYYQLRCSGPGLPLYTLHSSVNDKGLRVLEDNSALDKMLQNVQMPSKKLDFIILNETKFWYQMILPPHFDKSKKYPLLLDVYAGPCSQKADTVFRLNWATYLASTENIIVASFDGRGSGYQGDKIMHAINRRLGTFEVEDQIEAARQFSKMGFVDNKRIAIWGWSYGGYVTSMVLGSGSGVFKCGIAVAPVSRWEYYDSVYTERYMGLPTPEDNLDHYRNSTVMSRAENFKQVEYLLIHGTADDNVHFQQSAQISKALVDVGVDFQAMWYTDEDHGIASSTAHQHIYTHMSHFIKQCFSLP

[3] = Cell viability by MTT test; assay type: cell-based, rat; conditions: rat, 24 h, INS-1 cells, control 100%
Experimental: as §1
as §2, with “[…],” for “2 mM, 2.5 mM,”
as §3, §4, §5

INS-1 cells [4] = assay: Cell viability by MTT test; assay type: cell-based, rat; conditions: 2 mM palmitic acid, repetitive experiments
Experimental: as §1
as §2, with “[…],” for “2 mM, 2.5 mM,”
as §3, §4, §5

SMILES: CC[C@H](C)[C@H](NC(=O)[C@H](Cc1ccccc1)NC(=O)[C@H](CCC(=O)O)NC(=O)[C@H](CCCCN)NC(=O)[C@H](C)NC(=O)[C@H](C)NC(=O)[C@H](CCC(N)=O)NC(=O)CNC(=O)[C@H](CCC(=O)O)NC(=O)[C@H](CC(C)C)NC(=O)[C@H](Cc1ccc(O)cc1)NC(=O)[C@H](CO)NC(=O)[C@H](CO)NC(=O)[C@@H](NC(=O)[C@H](CC(=O)O)NC(=O)[C@H](CO)NC(=O)[C@@H](NC(=O)[C@H](Cc1ccccc1)NC(=O)[C@@H](NC(=O)CNC(=O)[C@H](CCC(=O)O)NC(=O)[C@H](C)NC(=O)[C@H](Cc1c[nH]cn1)NC(C)=O)[C@@H](C)O)[C@@H](C)O)C(C)C)C(=O)N[C@@H](C)C(=O)N[C@@H](Cc1c[nH]c2ccccc12)C(=O)N[C@@H](CC(C)C)C(=O)N[C@H](C(=O)N[C@@H](CCCCN)C(N)=O)C(C)C [curaglutide]
- cell viability values (INS-1 cells [1]; 1 nM curaglutide alone): 104.50±3.70%
- cell viability values (INS-1 cells [1]; 10 nM curaglutide alone): 121.80±7.30%
- % cell viability values (INS-1 cells [1]; 10 nM curaglutide as curative agent (24 h after 24 h palmitic acid) for 1.75 mM palmitic acid (autophagic dose)): 78.3±1.6%
- % cell viability values (INS-1 cells [1]; 10 nM curaglutide as curative agent for 2 mM palmitic acid (apoptotic dose)): 60.9±4.3%
- % cell viability values (INS-1 cells [1]; 10 nM curaglutide as curative agent for 3 mM palmitic acid (necrotic dose)): 56.5±1.7%
- % cell viability values (INS-1 cells [1]; 10 nM curaglutide as curative agent for 4 mM palmitic acid): 46.6±5.8%
- % cell viability values (INS-1 cells [1]; 10 nM curaglutide as protective against 3 mM palmitic acid (necrotic dose)): 56.4±4.7%
- % cell viability values (INS-1 cells [1]; 10 nM curaglutide as protector (24 h pre-treatment, then with palmitic acid 24 h) against 1.75 mM palmitic acid (autophagic dose)): 129.9±4.6%
- % cell viability values (INS-1 cells [1]; 10 nM curaglutide as protector against 2 mM palmitic acid (apoptotic dose)): 103.9±0.6%
- % cell viability values (INS-1 cells [1]; 10 nM curaglutide as protector against 4 mM palmitic acid): 52.2±4.6%
- cell viability values (INS-1 cells [1]; 100 nM curaglutide alone): 115.20±3.30%
- destruction by DPP-IV [2]: resistant to destruction by DPP-IV

SMILES: CCCCCCCCCCCCCCCC(=O)O [palmitic acid]
- viability at 24 h, 0.25 mM ([3]; 0.25 mM palmitic acid): 92 ± 2.4%
- viability at 24 h, 0.5 mM ([3]; 0.5 mM palmitic acid): 81.5 ± 7.6%
- viability at 24 h, 0.75 mM ([3]; 0.75 mM palmitic acid): 75.6 ± 4.37%
- viability at 24 h, 1 mM ([3]; 1 mM palmitic acid): 74.8 ± 2.35%
- viability at 24 h, 1.25 mM ([3]; 1.25 mM palmitic acid): 72.7 ± 7.7%
- viability at 24 h, 1.5 mM ([3]; 1.5 mM palmitic acid): 69.9 ± 7.4%
- viability at 24 h, 1.75 mM ([3]; 1.75 mM palmitic acid (autophagic dose)): 60.6 ± 11.6%
- viability at 24 h, 2 mM ([3]; 2 mM palmitic acid (apoptotic dose)): 50.1 ± 11%
- viability at 24 h, 2.25 mM ([3]; 2.25 mM palmitic acid): 58.4 ± 11.5%
- viability at 24 h, 2.5 mM ([3]; 2.5 mM palmitic acid): 49.9 ± 3%
- viability at 24 h, 2.75 mM ([3]; 2.75 mM palmitic acid): 62.9 ± 4.3%
- viability at 24 h, 3 mM ([3]; 3 mM palmitic acid (necrotic dose)): 36.5 ± 3.3%
- viability at 24 h, 3.25 mM ([3]; 3.25 mM palmitic acid): 44.1 ± 8.7%
- viability at 24 h, 3.5 mM ([3]; 3.5 mM palmitic acid): 39.4 ± 11.4%
- viability at 24 h, 3.75 mM ([3]; 3.75 mM palmitic acid): 42.9 ± 8.2%
- viability at 24 h, 4 mM ([3]; 4 mM palmitic acid (necrotic dose)): 41 ± 6.6%
- viability at 24 h, 4.25 mM ([3]; 4.25 mM palmitic acid): 44.9 ± 11.8%
- viability at 24 h, 4.5 mM ([3]; 4.5 mM palmitic acid): 37.3 ± 10.5%
- viability at 24 h, 4.75 mM ([3]; 4.75 mM palmitic acid): 35.7 ± 3.7%
- viability at 24 h, 5 mM ([3]; 5 mM palmitic acid): 42.1 ± 4.4%
- cell death (INS-1 cells [4]): 50%
